Reference: publication PMC8205039, “Synthesis and biological evaluation of 4-phenoxy-phenyl isoxazoles as novel acetyl-CoA carboxylase inhibitors” (Journal of Enzyme Inhibition and Medicinal Chemistry, 2021)

Legend:
hACC1 = molecular target: T1, hACC1 (Homo sapiens, UniProt Q13085); experiment: ACC inhibitory assay (ADP-Glo luminescent ADP detection); type: biochemical; conditions: for hACC1 IRs (%): at 5 μM, HTVS candidates (Table 1); for inhibition at 0.1 µM: hACC1, 0.1 μM, read-out: IRs (%) 0.1 μM; for inhibition at 0.1 µM / inhibition at 5 µM: mean of two independent experiments (Table 2); for inhibition at 5 µM: hACC1, 5 μM, read-out: IRs (%) 5 μM; for IC50: hACC1, mean ± SD
T1 construct: purchased BPS Biosciences 50200
Method: The hACC1 inhibitory activity of target compounds was evaluated using the ADP-Glo^TM kinase assay according to our previous report. In brief, 4.5 µL of working solution containing recombinant ACC1 (BPS Biosciences, 50200) and 0.5 µL of diluted compound solution were added to a 384-well Optiplate plate (Perkin Elmer, 6007290, PerkinElmer, Waltham, MA, USA), and incubated at room temperature for 15 min. Then, 5 µL of substrate mixture was added to the 384-well plate to start the reaction. After incubating for 60 min at room temperature, 10 µL of ADP-Glo reagents were added to the 384-well plate, and incubated for another 40 min to deplete the remaining ATP. Finally, 20 µL of kinase detection reagents were added to the plate and incubated for 40 min to convert ADP to ATP. The luminescent signal of ATP was determined using an Envision multifunction reader (Perkin Elmer, 2104–0010, PerkinElmer, Waltham, MA, USA). The IC50 values were calculated using GraphPad Prism 5 software (GraphPad Software, La Jolla, CA, USA).

A549 cells [1] = experiment: MTT assay, A549; type: cell-based; conditions: Homo sapiens, single concentration of 10 µM (Figure S2), read-out: inhibitory rate, A549
MDA-MB-231 cells [2] = experiment: MTT assay, MDA-MB-231; type: cell-based; conditions: Homo sapiens, single concentration of 10 µM (Figure S2), read-out: inhibitory rate, MDA-MB-231
A549 cells [3] = experiment: MTT assay, A549; type: cell-based; conditions: Homo sapiens, 72 h, mean ± SD (n = 3)
Method: (§1) The cytotoxicity of target compounds was assessed by MTT assay. Briefly, cells were seeded in 96-well plates at a density of 2500–3000 per well and incubated for 24 h in a CO2 incubator. Then, the cells were treated with candidate compounds at seven different concentrations for 72 h. At the end of treatment, the MTT reagent (5 mg/mL) was added to determine the cell viability. After 4 h of incubation, the resulting medium was removed, and 100 µL of DMSO was added to dissolve the formed formazan. Finally, the absorbance at 550 nm was measured by a microplate reader (Varioskan LUX, […]), with the IC50 values calculated using GraphPad Prism 5 software (GraphPad Software, La Jolla, CA, USA).

MDA-MB-231 cells [4] = experiment: MTT assay, MDA-MB-231; type: cell-based; conditions: Homo sapiens, 72 h, mean ± SD (n = 3)
Method: as §1

HepG2 cells [5] = experiment: MTT assay, HepG2; type: cell-based; conditions: Homo sapiens, 72 h, mean ± SD (n = 3)
Method: as §1

HepG2 cells [6] = experiment: MTT assay, HepG2; type: cell-based; conditions: Homo sapiens, single concentration of 10 µM (Figure S2), read-out: inhibitory rate, HepG2
[7] = Cell viability of non-cancerous HUVEC; type: cell-based, human; conditions: human, HUVEC cells (non-cancerous)
Method: (§2) To investigate the selectivity of the synthesised compounds towards cancer cells, the non-cancerous HUVEC cell line was selected for testing.
as §1

HUVEC = experiment: Cell viability of non-cancerous HUVEC; type: cell-based, human; conditions: 10 μM
Method: as §2, §1

Structure (SMILES) | hACC1 IRs (%) (hACC1) | inhibition at 0.1 µM (hACC1) | inhibition at 5 µM (hACC1) | IC50 (hACC1) | hACC1 IRs (%) (hACC1; listed as D098-1432 (6a)) | IC50 (A549 cells [3]) | IC50 (MDA-MB-231 cells [4]) | melting point | IC50 (HepG2 cells [5]) | ACC inhibitory activity (in words) (hACC1; screening at 5 µM and 0.1 µM) | inhibition at 10 µM (A549 cells [1]) | inhibition at 10 µM (MDA-MB-231 cells [2]) | inhibition at 10 µM (HepG2 cells [6]) | viability at 72 h, 10 µM [7] | IRs towards HUVEC (HUVEC)
O=C(c1c2ccccc2cc2ccccc12)N1CCC(N2CCC[C@@H](C(=O)N3CCOCC3)C2)CC1 [CP-640186, reference compound] | 86.83% | 48.9% | 87.8% | 0.109 ± 0.0062 µM |  |  |  |  |  |  |  |  |  |  | 
CC(=O)NC(C)c1cc(-c2ccc(Oc3ccc(O)cc3)cc2)no1 (stereo not drawn) [Compound 6b, N-(1-(3-(4-(4-Hydroxyphenoxy)phenyl)isoxazol-5-yl)ethyl)acetamide] |  | 8.76% | 26.8% |  |  | > 10 µM | > 10 µM | 103 to 105 °C | > 10 µM |  |  |  |  | 88.1 ± 3.83% | 
COc1ccc(Oc2ccc(-c3cc(C(C)NC(C)=O)on3)cc2)cc1 (stereo not drawn) [Compound 6c, N-(1-(3-(4-(4-Methoxyphenoxy)phenyl)isoxazol-5-yl)ethyl)acetamide] |  | 9.89% | 37.3% |  |  | > 10 µM | > 10 µM | 127.5 to 128.5 °C | > 10 µM |  |  |  |  | 82.4 ± 4.85% | 
CCOc1ccc(Oc2ccc(-c3cc(C(C)NC(C)=O)on3)cc2)cc1 (stereo not drawn) [Compound 6d, N-(1-(3-(4-(4-Ethoxyphenoxy)phenyl)isoxazol-5-yl)ethyl)acetamide] |  | 12.7% | 45.5% |  |  | > 10 µM | > 10 µM | 106.5 to 107.5 °C | > 10 µM |  |  |  |  | 89.1 ± 6.09% | 
CC(=O)NC(C)c1cc(-c2ccc(Oc3ccc(OC(C)C)cc3)cc2)no1 (stereo not drawn) [Compound 6f, N-(1-(3-(4-(4-Isopropoxyphenoxy)phenyl)isoxazol-5-yl)ethyl)acetamide] |  | 16.7% | 52.8% |  |  | > 10 µM | 6.77 ± 0.74 µM | 124 to 126 °C | > 10 µM |  |  |  |  | 35 ± 1.66% | 
CC(=O)NC(C)c1cc(-c2ccc(Oc3ccccc3)cc2)no1 (stereo not drawn) [Compound 6h, N-(1-(3-(4-Phenoxyphenyl)isoxazol-5-yl)ethyl)acetamide] |  | 8.78% | 36.4% |  |  | > 10 µM | > 10 µM | 118.5 to 119.5 °C | > 10 µM |  |  |  |  | 91.5 ± 2.58% | 
CCC(=O)NC(C)c1cc(-c2ccc(Oc3ccccc3)cc2)no1 (stereo not drawn) [Compound 6i, N-(1-(3-(4-Phenoxyphenyl)isoxazol-5-yl)ethyl)propionamide] |  | 18.5% | 51.8% |  |  | 6.02 ± 0.63 µM | 2.97 ± 1.49 µM | 129.5 to 130.5 °C | 4.21 ± 0.53 µM |  |  |  |  | 70.33 ± 0.25% | 
CCOC(=O)NC(C)c1cc(-c2ccc(Oc3ccccc3)cc2)no1 (stereo not drawn) [Compound 6m, Ethyl (1-(3-(4-phenoxyphenyl)isoxazol-5-yl)ethyl)carbamate] |  | 3.57% | 16.8% |  |  | > 10 µM | > 10 µM | 106.5 to 107.5 °C | > 10 µM | hardly observed |  |  |  | 79.1 ± 4.76% | 
CCNC(=O)NC(C)c1cc(-c2ccc(Oc3ccccc3)cc2)no1 (stereo not drawn) [Compound 6n, 1-Ethyl-3-(1-(3-(4-phenoxyphenyl)isoxazol-5-yl)ethyl)urea] |  | 13.4% | 44.7% |  |  | 5.78 ± 0.86 µM | 8.63 ± 1.14 µM | 158.5 to 159.5 °C | 9.04 ± 1.43 µM |  |  |  |  | 83.2 ± 2.33% | 
CC(NC(=O)NCc1ccccc1)c1cc(-c2ccc(Oc3ccccc3)cc2)no1 (stereo not drawn) [Compound 6q, 1-Benzyl-3-(1-(3-(4-phenoxyphenyl)isoxazol-5-yl)ethyl)urea] |  | 28.3% | > 60% | 0.711 ± 0.0526 µM |  | 5.73 ± 0.11 µM | 0.89 ± 0.26 µM | 161.5 to 162.5 °C | 2.47 ± 0.5 µM |  |  |  |  | 84.9 ± 3.98% | less than 20%

Further molecules by falling IC50 (A549 cells [3]), results first:

hACC1 IRs (%) (hACC1) | inhibition at 0.1 µM (hACC1) | inhibition at 5 µM (hACC1) | IC50 (hACC1) | hACC1 IRs (%) (hACC1; listed as D098-1432 (6a)) | IC50 (A549 cells [3]) | IC50 (MDA-MB-231 cells [4]) | melting point | IC50 (HepG2 cells [5]) | ACC inhibitory activity (in words) (hACC1; screening at 5 µM and 0.1 µM) | Structure (SMILES) | inhibition at 10 µM (A549 cells [1]) | inhibition at 10 µM (MDA-MB-231 cells [2]) | inhibition at 10 µM (HepG2 cells [6]) | viability at 72 h, 10 µM [7] | IRs towards HUVEC (HUVEC)
 | 21.5% | > 60% | 1.05 ± 0.18 µM |  | 5.3 ± 0.46 µM | 0.84 ± 0.08 µM | 195.5 to 196.5 °C | 1.8 ± 0.62 µM |  | CC(NC(=O)Nc1ccccc1)c1cc(-c2ccc(Oc3ccccc3)cc2)no1 (stereo not drawn) [Compound 6p, 1-(1-(3-(4-Phenoxyphenyl)isoxazol-5-yl)ethyl)-3-phenylurea] |  |  |  | 85.6 ± 7.35% | less than 20%
 | 17.9% | 49.8% |  |  | 3.12 ± 0.19 µM | 1.9 ± 0.52 µM | 197.5 to 198.5 °C | 2.31 ± 0.44 µM |  | CC(C)NC(=O)NC(C)c1cc(-c2ccc(Oc3ccccc3)cc2)no1 (stereo not drawn) [Compound 6o, 1-Isopropyl-3-(1-(3-(4-phenoxyphenyl)isoxazol-5-yl)ethyl)urea] |  |  |  | 77.7 ± 5.67% | 
 | 31.1% | > 60% | 0.438 ± 0.0163 µM |  | 2.66 ± 0.47 µM | 1.53 ± 0.38 µM | 118.5 to 119.5 °C | 3.48 ± 0.74 µM |  | CCCOc1ccc(Oc2ccc(-c3cc(C(C)NC(C)=O)on3)cc2)cc1 (stereo not drawn) [Compound 6e, N-(1-(3-(4-(4-Propoxyphenoxy)phenyl)isoxazol-5-yl)ethyl)acetamide] |  |  |  | 83.7 ± 4.4% | less than 20%
 | 20.8% | 58.4% |  |  | 2.66 ± 0.47 µM | 1.13 ± 0.38 µM | 168.5 to 169.5 °C | 3.48 ± 0.74 µM |  | CC(NC(=O)C1CC1)c1cc(-c2ccc(Oc3ccccc3)cc2)no1 (stereo not drawn) [Compound 6j, N-(1-(3-(4-Phenoxyphenyl)isoxazol-5-yl)ethyl)cyclopropanecarboxamide] |  |  |  | 59.5 ± 0.95% | 
 | 28.1% | > 60% | 0.626 ± 0.0416 µM |  | 2.61 ± 0.34 µM | 0.57 ± 0.18 µM |  | 3.23 ± 0.89 µM |  | CC(NC(=O)c1ccccc1)c1cc(-c2ccc(Oc3ccccc3)cc2)no1 (stereo not drawn) [Compound 6k, N-(1-(3-(4-Phenoxyphenyl)isoxazol-5-yl)ethyl)benzamide] |  |  |  | 80 ± 2.47% | less than 20%
57% | 18.1% | 54.9% |  | 57.39% | 1.4 ± 0.22 µM | 1.57 ± 0.09 µM | 152.5 to 153.5 °C | 1.91 ± 0.66 µM |  | CC(=O)NC(C)c1cc(-c2ccc(Oc3ccc(OCc4ccccc4)cc3)cc2)no1 (stereo not drawn) [Compound 6a, N-(1-(3-(4-(4-(Benzyloxy)phenoxy)phenyl)isoxazol-5-yl)ethyl)acetamide] | > 80% | > 80% | > 80% | 45.8 ± 1.16% | 
 |  |  |  |  | 0.52 ± 0.07 µM | 0.42 ± 0.09 µM |  | 0.67 ± 0.13 µM |  | COc1cccc2c1C(=O)c1c(O)c3c(c(O)c1C2=O)C[C@@](O)(C(=O)CO)C[C@@H]3O[C@H]1C[C@H](N)[C@H](O)[C@H](C)O1 [DOX, doxorubicin, reference compound] |  |  |  | 18.9 ± 4.02% | 
